From US9550073B2, “Therapeutic agent for allergic rhinitis” (SBI Pharmaceuticals Co., Ltd., priority 2011, dated 2017)
Where a name gives a salt, the structure may show the parent alone.

Key:
Assay type in all cases: in vivo, human
[1] = test system: allergic rhinitis due to pollinosis; assay: ALA-PDT with 635 nm red semiconductor laser after ALA hydrochloride in applied liquid form (transdermal, nasal cavity), subjects with pollinosis; conditions: 5% by weight in saline on cotton in the nasal cavity for 1 hour, 100 J of 635 nm laser for 6 minutes
Description: Then, it was examined whether or not, even when the ALA hydrochloride was administered in an applied liquid form, it could treat allergic rhinitis. A saline solution comprising 5% by weight of ALA hydrochloride sufficiently soaked in cotton was applied to the nasal cavity of 4 adult male subjects with pollinosis, and the soaked cotton was left in place for 1 hour before being removed. 100 J of red semiconductor laser light having a wavelength of 635 nm was intranasally irradiated for 6 minutes immediately after removing the soaked cotton on 3 of the subjects and 1 hour after removing the soaked cotton on the remaining 1 subject. As a result, symptoms of a severe runny nose and sneezing due to pollinosis of the 4 subjects disappeared for the 1 subject irradiated 1 hour thereafter and abated for the 3 subjects irradiated immediately thereafter. […] In addition, the treatment by the liquid form application is shown to be more excellent treatment than that by oral administration in view of cost effectiveness and time effectiveness because the direct application of an ALA hydrochloride solution around an inflamed site of the nasal mucosa can more decrease the amount of ALA hydrochloride administered than oral administration and PpIX accumulates in a short time in the inflamed site of the nasal mucosa.

[2] = test system: inflamed site of the nasal mucosa; assay: ALA-PDD: PpIX accumulation in the nasal mucosa after oral ALA hydrochloride; conditions: 3 subject volunteers with allergic rhinitis; 20 mg/kg oral; 408 nm violet light after about 6 hours
Description: (§1) To 3 subject volunteers with allergic rhinitis, 20 mg/kg of ALA hydrochloride was orally administered, and violet light of 408 nm was irradiated into the nasal cavity after about 6 hours using a bronchoscope enabling fluorescence observation (SAFE-3000 from Pentax) to perform ALA-PDD. […] The light of a red LED (light emitting diode) (FIG. 2) having a wavelength of 635 nm was irradiated on the inflamed site of the nasal mucosa until the red fluorescence could not be visually observed (FIG. 3). More specifically, the red LED light having a wavelength of 635 nm was irradiated for a certain period, followed by discontinuing the PDT irradiation; a bronchoscope (SAFE-3000 from Pentax) was inserted into the nasal cavity by interchanging with the irradiation device; and after observing red light, the PDT irradiation was again performed.

allergic rhinitis = assay: ALA-PDT with 635 nm red LED on the inflamed site after oral ALA hydrochloride, subjects with allergic rhinitis; conditions: 3 subjects; 20 mg/kg oral; 635 nm red LED until red fluorescence no longer visible
Description: as §1

[3] = test system: allergic rhinitis due to pollinosis; assay: ALA-PDT with 635 nm red semiconductor laser into the entire nasal cavity after oral ALA hydrochloride, subjects with pollinosis; conditions: 20 mg/kg oral
Description: To a total 12 subjects with pollinosis, 7 adult males and 5 adult females, 20 mg/kg of ALA hydrochloride was orally administered, and 6 hours later, 100 J of red semiconductor laser light having a wavelength of 635 nm was irradiated into the nasal cavity for 6 minutes. As a result, symptoms of a severe runny nose and sneezing due to pollinosis of the 12 subjects disappeared ([…]) or abated (5 subjects), and these effects were maintained until at least 1 year after the irradiation.

[4] = of 12 subjects with pollinosis, 6 hours later 100 J of 635 nm laser for 6 minutes

symptoms of a severe runny nose and sneezing until several days after the irradiation (allergic rhinitis): observed in the 3 subjects
Compound: NCC(=O)CCC(=O)O [ALA hydrochloride, 5-aminolevulinic acid]
symptoms of a severe runny nose and sneezing, irradiated 1 hour after removing the soaked cotton ([1]; 1 subject): disappeared | symptoms of a severe runny nose and sneezing, irradiated immediately after removing the soaked cotton ([1]; 3 subjects): abated | inflamed site of the nasal mucosa by which PpIX was taken up (ALA-PDD fluorescence) [2]: detected as red fluorescence | course of symptoms of runny nose and sneezing thereafter (allergic rhinitis): abated over several weeks | time for which the effects were maintained after the irradiation ([3]; 12 subjects with pollinosis, 100 J of 635 nm laser for 6 minutes): at least 1 year | subjects whose symptoms of a severe runny nose and sneezing abated [3, 4]: 5 subjects | subjects whose symptoms of a severe runny nose and sneezing disappeared [3, 4]: 3 subjects
